# Test results from patent publication US20220380383A1, “NEUROPROTECTIVE PDI MODULATING SMALL MOLECULES AND METHODS OF USE THEREOF” (THE TRUSTEES OF COLUMBIA UNIVERSITY IN THE CITY OF NEW YORK, priority 2018, published 2022).
# Where two headings read alike, the source gives them in different places.
# Legend:
# [1] = target: T1, human catalytic PDI A1 a domain (PDIa) (Homo sapiens, UniProt P07237); test: Isothermal titration calorimetry (ITC) binding to PDIa
# T1 construct: made in house; host or cells: Escherichia coli BL21-Gold (DE3)
# T1 sequence (P07237 18-134): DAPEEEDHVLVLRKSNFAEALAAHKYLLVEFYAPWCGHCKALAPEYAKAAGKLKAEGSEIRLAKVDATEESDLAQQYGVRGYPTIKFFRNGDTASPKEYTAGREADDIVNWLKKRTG
# Experimental: All ITC experiments were carried out at 25° C. on MicoCal Auto-ITC200 system (GE Healthcare). […] ITC titration experiments were carried out at 25° C. with 19 injections, 2 μl per injection, and 180 seconds between each injection. The reference cell power was set to 5 μcal/sec. A control experiment was performed for each compound, where each compound was titrated into buffer to account for heat released due to dilution. This background was subtracted from test data before a final dissociation constant was obtained. […] Gibbs free energy, ΔG, was calculated from equation ΔG=ΔH-TΔS. All other parameters, Ka, n, ΔH, ΔS, were determined directly from the titration data.
# LOC14 analogs were designed and synthesized as described in the synthetic schemes. The analogs were evaluated for their binding to PDIa using isothermal titration calorimetry (ITC) (results of certain compounds are shown in FIGS. 1A-1E). Next, the analogs were tested for their ability to rescue PC12 cells from mHTT^Q103 induced cell death in a dose-dependent manner (results of certain compounds are shown in FIG. 2).
# [2] = Solubility (stock solvent)
# PC12 mHTTQ103 cells = test: Rescue of PC12 cells from mHTTQ103-induced cell death; assay type: cell-based, rat; conditions: for EC50: Rattus norvegicus, PC-12
# [3] = Tables 5-13, NA = not active, read-out: Kd
# [4] = Tables 5-13, solvent not given (DMSO in Table 1)
# [5] = Tables 5-13, PC12 cells, read-out: EC50
# [6] = rescue from mHTTQ103 induced cell death
# [7] = N/A = not active, read-out: ITC KD
# [8] = rescue from mHTTQ103 induced cell death, read-out: PC12 cells EC50
SMILES,"Kd [1, 3] [nM]",Solubility [2] [mM in DMSO],"Solubility [2, 4] [mM]",EC50 (PC12 mHTTQ103 cells; [5]) [nM],"Max Viability (%) (PC12 mHTTQ103 cells; Tables 5-13, PC12 cells)",PC12 cells Max % Viability (PC12 mHTTQ103 cells; [6]) [%],"Kd [1, 7] [nM]",EC50 (PC12 mHTTQ103 cells; [8]) [nM],"Kd ([1]; Tables 6, 11, 12, read-out: Kd (nM), first value of two-site binding) [nM]","Kd ([1]; Tables 6, 11, 12, read-out: Kd (nM), second value of two-site binding) [nM]",ITC KD ([1]; N/A = not active),"Kd ([1]; ITC assay, read-out: KD) [nM]",PC12 cells EC50 (PC12 mHTTQ103 cells; [6])
O=c1c2ccccc2sn1CN1CCCCC1 [LC-1],107,100,100,459,67,66.57,,,,,,,
CN1CCN(Cn2sc3ccccc3c2=O)CC1 [LC-2],134 ± 20,100,100,415,63,63.29,,,,,,,
O=c1c2ccccc2sn1CN1CCSCC1 [LC-3],,,100,463,63,63.05,97.1,,,,,,
O=c1c2ccccc2sn1CN1CCC(CO)CC1 [LC-4],265,100,100,343,60,60.18,,342,,,,,
O=c1c2ccccc2sn1Cc1ccccc1 [LC-5],,100,100,,,,,,43,2270,,,
O=C(Nc1ccccc1)n1sc2ccccc2c1=O [LC-6],,30,30,476,66,66.47,,,,,KD = N/A irreversible or not active,,
O=c1c2ccccc2sn1CN1CCC(O)CC1 [LC-7],,100,100,441,72,71.98,,,,,,,
CC(C)(C)OC(=O)NC1CCN(Cn2sc3ccccc3c2=O)CC1 [LC-8],94,,,384,68,68.37,,384,,,,,
O=c1c2ccccc2sn1CN1CCN(Cn2sc3ccccc3c2=O)CC1 [LC-9],,5,5,,66,66.07,12.7,173,,,,13,
CC(C)(C)OC(=O)N1CCN(Cn2sc3ccccc3c2=O)CC1 [LC-10],123 ± 34,100,100,581,72,71.82,,561,,,,,
O=C(c1ccccc1)n1sc2ccccc2c1=O [LC-11],,100,100,> 50000,28,27.72,,,,,KD = N/A irreversible or not active,,
O=c1c2ccccc2sn1CN1CCN(c2ncccn2)CC1 [LC-12],140 ± 29,100,100,416,68,68.35,,,,,,,
CC(=O)c1ccc(N2CCN(Cn3sc4ccccc4c3=O)CC2)cc1 [LC-13],190 ± 27,100,100,514,63,63.14,,,,,,,
O=C(C1CC1)N1CCN(C(=O)n2sc3ccccc3c2=O)CC1 [LC-14],,,,> 50000,34,33.58,,,,,KD = N/A irreversible or not active,,
O=C(C1CC1)N1CCN(Cn2sc3ccc(Cl)cc3c2=O)CC1 [LC-15],114,15,15,487,57,56.92,,487,,,,,
CC(C)(C)OC(=O)N1CCC(COc2nsc3ccccc23)CC1 [LC-16],,,,> 50000,30,30.24,,,,,KD = N/A irreversible or not active,,
O=c1c2ccccc2sn1CN1CCOCC1 [LC-18],253,100,100,547,69,69.00,,,,,,,
O=C(Nc1ccccc1)c1ccccc1S [LC-19],,,,,,,,,,,KD = N/A irreversible or not active,,
O=C(NCc1ccc(Br)cc1)c1ccccc1S [LC-20],,100,100,> 50000,42,42.11,,,,,KD = N/A irreversible or not active,,
O=C(Nc1ccc(N2CCOCC2)cc1)c1ccccc1S [LC-21],,100,100,696,32,31.98,,,,,KD = N/A irreversible or not active,,
O=c1c2ccccc2sn1CN1CCN(Cc2ccccc2)CC1 [LC-22],173 ± 32,100,100,310,62,61.51,,,,,,,
O=C(Nc1ccc(Cc2ccccc2)cc1)c1ccccc1S [LC-23],,100,100,3880,57,56.53,,,,,KD = N/A irreversible or not active,,
O=c1c2ccccc2sn1-c1ccc(Cc2ccccc2)cc1 [LC-25],,100,100,1590,37,36.83,,,,,KD = N/A irreversible or not active,,
O=c1c2ccccc2sn1Cc1ccc(Br)cc1 [LC-26],,100,100,778,38,37.88,,,,,KD = N/A irreversible or not active,,
O=c1c2ccccc2sn1-c1ccc(N2CCOCC2)cc1 [LC-27],,,,1830,28,28.37,,,,,KD = N/A irreversible or not active,,
C[C@@H](NC(=O)c1ccccc1S)c1ccccc1 [LC-28],,100,100,808,56,55.52,,,,,KD = N/A irreversible or not active,,
"O=c1[nH]sc2ncccc12 [LC-47, isothiazolo[5,4-b]pyridin-3(2H)-one]",,,,> 50000,36,36.31,,,,,KD = N/A irreversible or not active,,
O=C(C1CC1)N1CCN(Cn2oc3ccccc3c2=O)CC1 [Oxy- LOC14],,100,,,,8.16,,,,,,,Not Active
